# Reference: patent US20250368619A1, “SUBSTITUTED TETRAHYDROCYCLOHEPTA[E]INDOLE DERIVATIVES, PROCESSES FOR THEIR PREPARATION AND THERAPEUTIC USES THEREOF” (SANOFI, priority 2022, published 2025)
# Target: T1, ERα (Homo sapiens, UniProt P03372)
# T1 construct: host or cells: MCF7
# T1 sequence (P03372 1-595): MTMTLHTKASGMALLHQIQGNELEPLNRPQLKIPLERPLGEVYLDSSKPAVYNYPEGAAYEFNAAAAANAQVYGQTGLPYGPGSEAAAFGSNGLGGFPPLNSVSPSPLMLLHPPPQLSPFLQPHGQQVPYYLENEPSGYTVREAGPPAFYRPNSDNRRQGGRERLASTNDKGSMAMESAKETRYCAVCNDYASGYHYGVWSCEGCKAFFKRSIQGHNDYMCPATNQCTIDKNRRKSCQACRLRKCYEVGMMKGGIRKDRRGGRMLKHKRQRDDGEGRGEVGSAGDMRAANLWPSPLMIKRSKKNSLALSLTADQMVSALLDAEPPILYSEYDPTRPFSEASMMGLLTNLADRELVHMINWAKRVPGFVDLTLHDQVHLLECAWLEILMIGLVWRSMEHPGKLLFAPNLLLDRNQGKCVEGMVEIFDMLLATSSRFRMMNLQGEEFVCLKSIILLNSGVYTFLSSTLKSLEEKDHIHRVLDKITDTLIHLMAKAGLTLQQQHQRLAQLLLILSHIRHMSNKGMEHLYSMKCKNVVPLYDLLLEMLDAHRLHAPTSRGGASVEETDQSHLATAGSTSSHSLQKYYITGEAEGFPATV
# Experiment: Estrogen receptor degradation activity: breast cancer cell ERα in cell western assay in MCF7 cells
# Format: cell-based
# Details: 4 hours, relative to fulvestrant 0.1 μM positive control
# Description: Test: Estrogen receptor degradation activity
# Said test involves measuring the in vitro degradation activity of the compounds of the table 1.
# The measurements of the degradation activities were made using a breast cancer cell ERα in cell western assay as described hereunder.
# MCF7 cells (ATCC) were seeded in 384 wells microplate (collagen coated) at a concentration of 10000 cells/30 μL per well in red phenol free MEM alpha medium (invitrogen) containing 5% charcoal dextran striped FBS. The following day, 9 points serial 1:5 dilution of each compound was added to the cells in 2.5 μL at final concentrations ranging from 0.3-0.0000018 μM (in table 2), or 0.1 μM for fulvestrant (using as positive control). At 4 hours post compound addition the cells were fixed by adding 25 μL of formalin (final concentration 5% formalin containing 0.1% triton) for 10 minutes at RT and then washed twice with PBS. Then, 50 μL of LI-COR blocking buffer containing 0.1% Triton was added to plate for 30 minutes at RT. LI-COR blocking buffer was removed and cells were incubated overnight at cold room with 50 μL anti-ER rabbit monoclonal antibody (Thermo scientific MA1-39540) diluted at 1:1000 in LI-COR blocking buffer containing 0.1% tween-20. Wells which were treated with blocking buffer but no antibody were used as background control. Wells were washed twice with PBS (0.1% tween-20) and incubated at 37° C. for 60 minutes in LI-COR (0.1% tween-20) containing goat anti-rabbit antibody Alexa 488 (1:1000) and Syto-64 a DNA dye (2 μM final concentration). Cells were then washed 3 times in PBS and scanned in ACUMEN explorer (TTP-Labtech). Integrated intensities in the green fluorescence and red fluorescence were measured to determine the levels of ERα and DNA respectively.
# The degradation activity with respect to estrogen receptors in this test is given by the concentration which degrades 50% of the estrogen receptor (or IC50) in nM.
# The % of ERα levels decrease were determined as follows: % inhibition=100*(1−(sample−fulvestrant:DMSO−fulvestrant)).
row,% Degradation At 0.3 μM [%],Compound
1,80,"Cc1cc(F)ccc1C1=C(c2ccc(CC3CN(CCCF)C3)cc2)c2ccc3[nH]ccc3c2CCC1 [Compound 1, 7-(4-fluoro-2-methylphenyl)-6-(4-((1-(3-fluoropropyl)azetidin-3-yl)methyl)phenyl)-3,8,9,10-tetrahydrocyclohepta[e]indole]"
2,83,"Cc1c(Cl)cccc1C1=C(c2ccc(CC3CN(CCCF)C3)cc2)c2ccc3[nH]ccc3c2CCC1 [Compound 8, 7-(3-chloro-2-methylphenyl)-6-(4-((1-(3-fluoropropyl)azetidin-3-yl)methyl)phenyl)-3,8,9,10-tetrahydrocyclohepta[e]indole]"
3,74,"FCCCN1CC(Cc2ccc(C3=C(C4=CCOCC4)CCCc4c3ccc3[nH]ccc43)cc2)C1 [Compound 16, 7-(3,6-dihydro-2H-pyran-4-yl)-6-(4-((1-(3-fluoropropyl)azetidin-3-yl)methyl)phenyl)-3,8,9,10-tetrahydrocyclohepta[e]indole]"
4,69,"OC/C=C/C1=C(c2ccc(CC3CN(CCCF)C3)cc2)c2ccc3[nH]ccc3c2CCC1 [Compound 17, (E)-3-(6-(4-((1-(3-fluoropropyl)azetidin-3-yl)methyl)phenyl)-3,8,9,10-tetrahydrocyclohepta[e]indol-7-yl)prop-2-en-1-ol]"
5,77,"CC(C)(O)/C=C/C1=C(c2ccc(CC3CN(CCCF)C3)cc2)c2ccc3[nH]ccc3c2CCC1 [Compound 18, (E)-4-(6-(4-((1-(3-fluoropropyl)azetidin-3-yl)methyl)phenyl)-3,8,9,10-tetrahydrocyclohepta[e]indol-7-yl)-2-methylbut-3-en-2-ol]"
6,68,"O=C(O)c1cccc(C2=C(c3ccc(CC4CN(CCCF)C4)cc3)c3ccc4[nH]ccc4c3CCC2)c1 [Compound 22, 3-(6-(4-((1-(3-fluoropropyl)azetidin-3-yl)methyl)phenyl)-3,8,9,10-tetrahydrocyclohepta[e]indol-7-yl)benzoic acid]"
7,92,"O=C(O)/C=C/C1=C(c2ccc(CC3CN(CCCF)C3)cc2)c2ccc3[nH]ccc3c2CCC1 [Compound 24, (E)-3-(6-(4-((1-(3-fluoropropyl)azetidin-3-yl)methyl)phenyl)-3,8,9,10-tetrahydrocyclohepta[e]indol-7-yl)acrylic acid]"

# Further lines, the compound ahead of its results:
row,Compound,% Degradation At 0.3 μM [%]
1,"COc1nccc(C2=C(c3ccc(CC4CN(CCCF)C4)cc3)c3ccc4[nH]ccc4c3CCC2)c1F [Compound 2, 7-(3-fluoro-2-methoxypyridin-4-yl)-6-(4-((1-(3-fluoropropyl)azetidin-3-yl)methyl)phenyl)-3,8,9,10-tetrahydrocyclohepta[e]indole]",92
2,"Cc1c(Cl)cccc1C1=C(c2ccc(C=C3CN(CCCF)C3)cc2)c2ccc3[nH]ccc3c2CCC1 [Compound 3, 7-(3-chloro-2-methylphenyl)-6-(4-((1-(3-fluoropropyl)azetidin-3-ylidene)methyl)phenyl)-3,8,9,10-tetrahydrocyclohepta[e]indole]",91
3,"FCCCN1CC[C@H](Oc2ccc(C3=C(c4ccc(Cl)cc4Cl)CCCc4c3ccc3[nH]ccc43)cc2)C1 [Compound 4, (S)-7-(2,4-dichlorophenyl)-6-(4-((1-(3-fluoropropyl)pyrrolidin-3-yl)oxy)phenyl)-3,8,9,10-tetrahydrocyclohepta[e]indole]",85
4,"FCCCN1CC[C@H](Oc2ccc(C3=C(C4=CCC(F)(F)CC4)CCCc4c3ccc3[nH]ccc43)cc2)C1 [Compound 5, (S)-7-(4,4-difluorocyclohex-1-en-1-yl)-6-(4-((1-(3-fluoropropyl)pyrrolidin-3-yl)oxy)phenyl)-3,8,9,10-tetrahydrocyclohepta[e]indole]",95
5,"Oc1c(F)ccc(C2=C(c3ccc(CC4CN(CCCF)C4)cc3)c3ccc4[nH]ccc4c3CCC2)c1F [Compound 6, 2,6-difluoro-3-(6-(4-((1-(3-fluoropropyl)azetidin-3-yl)methyl)phenyl)-3,8,9,10-tetrahydrocyclohepta[e]indol-7-yl)phenol]",90
6,"FCCCN1CC(Cc2ccc(C3=C(c4ccc(Cl)cc4Cl)CCCc4c3ccc3[nH]ccc43)cc2)C1 [Compound 7, 7-(2,4-dichlorophenyl)-6-(4-((1-(3-fluoropropyl)azetidin-3-yl)methyl)phenyl)-3,8,9,10-tetrahydrocyclohepta[e]indole]",82
7,"COc1cccc(C2=C(c3ccc(CC4CN(CCCF)C4)cc3)c3ccc4[nH]ccc4c3CCC2)c1OC [Compound 9, 7-(2,3-dimethoxyphenyl)-6-(4-((1-(3-fluoropropyl)azetidin-3-yl)methyl)phenyl)-3,8,9,10-tetrahydrocyclohepta[e]indole]",80
8,"FCCCN1CC(Cc2ccc(C3=C(c4cccc(C(F)(F)F)c4)CCCc4c3ccc3[nH]ccc43)cc2)C1 [Compound 10, 6-(4-((1-(3-fluoropropyl)azetidin-3-yl)methyl)phenyl)-7-(3-(trifluoromethyl)phenyl)-3,8,9,10-tetrahydrocyclohepta[e]indole]",73
9,"N#Cc1cccc(C2=C(c3ccc(CC4CN(CCCF)C4)cc3)c3ccc4[nH]ccc4c3CCC2)c1 [Compound 11, 3-(6-(4-((1-(3-fluoropropyl)azetidin-3-yl)methyl)phenyl)-3,8,9,10-tetrahydrocyclohepta[e]indol-7-yl)benzonitrile]",75
10,"N#Cc1ccccc1C1=C(c2ccc(CC3CN(CCCF)C3)cc2)c2ccc3[nH]ccc3c2CCC1 [Compound 12, 2-(6-(4-((1-(3-fluoropropyl)azetidin-3-yl)methyl)phenyl)-3,8,9,10-tetrahydrocyclohepta[e]indol-7-yl)benzonitrile]",85
11,"N#Cc1ccc(C2=C(c3ccc(CC4CN(CCCF)C4)cc3)c3ccc4[nH]ccc4c3CCC2)cc1 [Compound 13, 4-(6-(4-((1-(3-fluoropropyl)azetidin-3-yl)methyl)phenyl)-3,8,9,10-tetrahydrocyclohepta[e]indol-7-yl)benzonitrile]",72
12,"COc1cc(C2=C(c3ccc(CC4CN(CCCF)C4)cc3)c3ccc4[nH]ccc4c3CCC2)ccn1 [Compound 14, 6-(4-((1-(3-fluoropropyl)azetidin-3-yl)methyl)phenyl)-7-(2-methoxypyridin-4-yl)-3,8,9,10-tetrahydrocyclohepta[e]indole]",91
13,"COc1ccc(C2=C(c3ccc(CC4CN(CCCF)C4)cc3)c3ccc4[nH]ccc4c3CCC2)cn1 [Compound 15, 6-(4-((1-(3-fluoropropyl)azetidin-3-yl)methyl)phenyl)-7-(6-methoxypyridin-3-yl)-3,8,9,10-tetrahydrocyclohepta[e]indole]",91
14,"OCc1cccc(C2=C(c3ccc(CC4CN(CCCF)C4)cc3)c3ccc4[nH]ccc4c3CCC2)c1 [Compound 19, (3-(6-(4-((1-(3-fluoropropyl)azetidin-3-yl)methyl)phenyl)-3,8,9,10-tetrahydrocyclohepta[e]indol-7-yl)phenyl)methanol]",71
15,"OCc1ccc(C2=C(c3ccc(CC4CN(CCCF)C4)cc3)c3ccc4[nH]ccc4c3CCC2)cc1 [Compound 20, (4-(6-(4-((1-(3-fluoropropyl)azetidin-3-yl)methyl)phenyl)-3,8,9,10-tetrahydrocyclohepta[e]indol-7-yl)phenyl)methanol]",76
16,"OCCc1cccc(C2=C(c3ccc(CC4CN(CCCF)C4)cc3)c3ccc4[nH]ccc4c3CCC2)c1 [Compound 21, 2-(3-(6-(4-((1-(3-fluoropropyl)azetidin-3-yl)methyl)phenyl)-3,8,9,10-tetrahydrocyclohepta[e]indol-7-yl)phenyl)ethan-1-ol]",65
17,"O=C(O)C(F)(F)F.O=C(O)c1ccc(C2=C(c3ccc(CC4CN(CCCF)C4)cc3)c3ccc4[nH]ccc4c3CCC2)cc1 [Compound 23, 4-(6-(4-((1-(3-fluoropropyl)azetidin-3-yl)methyl)phenyl)-3,8,9,10-tetrahydrocyclohepta[e]indol-7-yl)benzoic acid, 2,2,2-trifluoroacetic acid]",80
